Paper PMC8808171, “Nonselective TRPC channel inhibition and suppression of aminoglycoside-induced premature termination codon readthrough by the small molecule AC1903” (The Journal of Biological Chemistry, 2022)
“Also recorded” adds a separate entry of the source.

What was measured:
A498 cells = experiment: Cell viability assay (WST-1), A498 cells, AC1903 alone; type: cell-based; details: 0.1–100 μM, 8 h
Protocol: Cell viability assays were carried out using WST-1 Cell Proliferation Reagent (Merck). A498 cells were plated onto clear 96-well plates at 4000 cells per well and left to adhere for 24 h. Media was then removed, and replaced with fresh media containing 100 nM EA, in presence of either DMSO or 0.1 to 100 μM AC1903. Control wells were treated with vehicle (DMSO) only. To exclude any potential cytotoxic effects of AC1903 itself, cells were incubated with 0.1 to 100 μM AC1903 in absence of EA. Cells were treated in triplicate. Cells were incubated with compounds for 8 h. After 8 h, treatment media was removed and media containing WST-1 reagent (10 μl reagent +100 μl media per well) was added to each well and incubated for 1.5 h at 37 °C. Blank wells contained media and WST-1 reagent (no cells). […] Absorbance was then read at 440 nm and 650 nm (reference wavelength). To analyze data, the value of the 650 nm was subtracted from that of the 440 nm reading. Values across triplicate wells were averaged, and the value from the blank wells subtracted to account for background absorbance. […]
Inhibition of G418-induced premature stop codon readthrough
A498 cytotoxicity . […] Cell viability was calculated as % of control, and the effect of AC1903 was compared to control (0 µM ) (scatter plots showing data from three independent experiments; bars represent mean ± SD; n = 3). […]

[1] = test system: JEB01 keratinocytes (COL17A1 R688X); experiment: G418-induced PTC readthrough (Collagen XVII, Western blot) in JEB01 keratinocytes; type: cell-based, human; details: pretreatment 150 μM AC1903, increasing concentrations of G418 (Fig. 2E)
Protocol: Figure 2 Effect of AC1903 on PTC readthrough and G418 trafficking.A and B, DMS-114 (A) or TC-71 (B) cells were pretreated with indicated concentrations of AC1903 for 3 h followed by exposure to 400 μg/ml G418. After 3 h medium was replenished and at 24 h cell lysates were prepared and p53 levels were measured. C and E, DMS-114 (C) or JEB01 (E) cells were either left untreated or pretreated with 150 μM AC1903 for 3 h followed by exposure to indicated concentrations of G418 for another 3 h. At 24 h cell lysates were prepared and p53 (C) or Collagen XVII (E) levels were measured. In panels A–C, protein levels were measured by automated capillary electrophoresis Western analysis (using vinculin as loading control). In panel E, protein levels were measured by Western blot (using beta-actin as loading control). […] D, total intracellular levels of G418 were measured in the same lysates as in (C) (n = 5; data normalized to the highest response in each experiment; bars represent mean ± SD). F, total intracellular levels of G418 were measured in the same lysates as in (E) (n = 2; data normalized to the highest response in each experiment; bars represent mean ± SD). ∗ indicates statistically significant difference between samples according to one-way ANOVA (p < 0.05). […]

In the case of `c1ccc(Cn2c(NCc3ccco3)nc3ccccc32)cc1` [AC1903], the “effect on viability of A498 cells” value (A498 cells) is reported as “not toxic; also recorded: did not affect viability” and the “decline of full-length Collagen XVII” value [1] is reported as 45–80%.
